Measured values from publication PMC10987829 (iScience, 2024).

Columns and labels:
[1] = molecular target: H2A/H2B dimers (Xenopus laevis, UniProt P02281+P06897); experiment: Protein thermal shift; format: binding; conditions: H2A/H2B 0.5 mg/mL, ligand 1.2:1 molar ratio, 50 mM Bis-Tris propane pH 7.4, 150 mM NaCl, 10X SYPRO Orange; apo H2A/H2B Tm 46.1 ± 0.2°C; three replicates
[2] = test system: H3/H4; conditions: cited from earlier work
[3] = molecular target: Npm2 A2mockglu4 peptide (…), 'pseudo-glutamylated' (Xenopus laevis); experiment: other fluorescence titration
[4] = test system: mononucleosomes; experiment: Disassembly of premade mononucleosomes; format: biochemical; conditions: salt-dialysis mononucleosomes, increasing chaperone

DYDEEGEEADDEEGEEEADEDHDPDFDPK [Nap1 A3 (350–382)]
change of H2A/H2B melting temperature (Tm) [1]: 6.7 °C

Npm2 Tail (119–146): Npm2 C-terminal Tail domain peptide, residues 119–146, purified as previously described (AMEEDYSWAEEEDEGEEEEEEEEDPESP)
fold lower affinity for H3/H4 than for H2A/H2B [2]: 5 fold

Xenopus laevis H2A/H2B heterodimer (from UniProt P06897;P02281) (complex)
Kd [3]: 300 nM

B1: Nap1glu: TTLL4-treated (glutamylated) full-length Nap1 (protein)
chain: MANIDNKGQTELDQQDMEDVEDVEEEETGEDANSKARQLTAQMMQNPQVLAALQERLDDLVGTPTGYIESLPKVVKRRVNALKNLQVKCAQIEAKFYEEVHELERKYAALYQPLFDKRSDIINATYEPTEEECEWKVEEEDISGDLKEKAKLEEEKKDEEKEDPKGIPEFWLTVFKNVDLLSDMLQEHDEPILKHLKDIKVKFSDAGQPMSFTLEFYFEPNEFFTNEVLTKTYKMRSEPDESDPFSFDGPEIMGCTGCLIDWKKGKNVTLKTIKKKQKHKGRGTVRTVTKTVPNDSFFNFFTPPEVPENGELDDDAEAILTADFEIGHFLRERIIPRSVLYFTGEAIEDDDDDYDEEGEEADDEEGEEEADEDNDPDYEPKV
disassembly of premade mononucleosomes [4]: neither Nap1 nor Nap1glu were able to disassemble premade mononucleosomes
